The text below walks through data of US20260327225A1, “HETEROCYCLIC COMPOUNDS AS TRIGGERING RECEPTOR EXPRESSED ON MYELOID CELLS 2 AGONISTS AND METHODS OF USE” (VIGIL NEUROSCIENCE, INC., priority 2023, published 2026).

SMILES strings stand for the structures.

The target of this assay is T1, human TREM2 (Homo sapiens, UniProt Q9NZC2).
T1 construct: expressed in transfected cells; host or cells: HEK293T-hTREM2 cells (HEK cell line expressing human TREM2 and DAP12)
The assay can be described thus: TREM2 agonist potency by cellular phosphorylation of Syk (AlphaLisa) in HEK293T-hTREM2 cells expressing human TREM2 and DAP12. Format: cell-based. To be noted: HEK293 cells expressing hTREM2 and DAP12; 45 minutes at room temperature; Syk phosphorylation, AlphaLisa; read-out: hTREM2 EC50. Put shortly:
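HEK293T cells co-expressing human TREM2 and DAP12 were exposed to compound in assay buffer for 45 min at room temperature, then lysed. Phospho-Syk measured by AlphaLisa; % activation fitted with a four-parameter agonist curve to give EC50.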

T1 sequence (Q9NZC2 19-230): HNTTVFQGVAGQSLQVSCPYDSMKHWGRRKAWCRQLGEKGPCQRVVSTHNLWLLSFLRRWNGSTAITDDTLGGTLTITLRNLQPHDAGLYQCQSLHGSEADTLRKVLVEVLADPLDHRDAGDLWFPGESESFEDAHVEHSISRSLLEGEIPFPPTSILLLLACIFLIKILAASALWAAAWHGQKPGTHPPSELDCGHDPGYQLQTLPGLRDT
T1 sequence (O43914 22-113 partner): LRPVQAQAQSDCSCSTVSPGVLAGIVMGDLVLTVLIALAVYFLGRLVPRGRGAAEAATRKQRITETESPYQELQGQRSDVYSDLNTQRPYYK

Take `Cc1nc2nc(N3C[C@@H](C)O[C@@H](c4cnn(C5CC5)c4)C3)nc(C34CC(C(F)(F)F)(C3)C4)c2cc1C(F)(F)Cl` (racemic) [Example 90, (2S,6R)-4-(6-(chloro-difluoromethyl)-7-methyl-4-(3-(trifluoromethyl)-bicyclo[1.1.1]pentan-1-yl)pyrido[2,3-d]pyrimidin-2-yl)-2-(1-cyclopropyl-1H-pyrazol-4-yl)-6-methylmorpholine]: the EC50 (in general, the concentration at which the effect is half-maximal) was in the range of 100 to 500 nM.

For `Cc1nc2nc(N3C[C@@H](C)O[C@@H](c4cnn(C5CC5)c4)C3)nc(-c3ccncc3F)c2nc1C` [Example 96, (2S,6R)-2-(1-cyclopropylpyrazol-4-yl)-4-[4-(3-fluoro-4-pyridyl)-6,7-dimethylpteridin-2-yl]-6-methyl-morpholine], the EC50 lay in the range of 100 to 500 nM.

In the case of `Cc1noc(-c2cc3c(-c4ccc(F)cc4F)nc(N4C[C@@H](C)O[C@@H](c5cnn(C6CC6)c5)C4)nc3nc2C)n1` [Example 6, (2S,6R)-2-(1-cyclopropylpyrazol-4-yl)-4-[4-(2,4-difluorophenyl)-7-methyl-6-(3-methyl-1,2,4-oxadiazol-5-yl)-pyrido[2,3-d]pyrimidin-2-yl]-6-methyl-morpholine], the half-maximal effective concentration (EC50) was under 100 nM.

Consider `Cc1nc2nc(N3C[C@@H](C)O[C@@H](c4cnn(C5CC5)c4)C3)nc(-c3ccc(F)cc3F)c2cc1C(=O)N(C)C` [Example 2, 2-((2S,6R)-2-(1-cyclopropyl-1H-pyrazol-4-yl)-6-methylmorpholino)-4-(2,4-difluorophenyl)-N,N-7-trimethylpyrido[2,3-d]pyrimidine-6-carboxamide], for which the concentration giving a half-maximal response (EC50) was over 500 nM.

`Cc1nc2nc([C@H]3CCO[C@@H](c4cnn(C5CC5)c4)C3)nc(C34CC(C(F)(F)F)(C3)C4)c2cc1-c1ccn(C)n1` [Example 27, 2-((2R,4S)-2-(1-cyclopropyl-1H-pyrazol-4-yl)tetrahydro-2H-pyran-4-yl)-7-methyl-6-(1-methyl-1H-pyrazol-3-yl)-4-(3-(trifluoromethyl)-bicyclo[1.1.1]pentan-1-yl)pyrido[2,3-d]pyrimidine]: the EC50 fell in the range of 100 to 500 nM.

In the case of `Cc1nc2nc(N3C[C@@H](C)O[C@@H](c4cnn(C5CC5)c4)C3)nc(C34CC(C3)C4)c2nc1C` [Example 100, (2S,6R)-4-[4-(1-bicyclo[1.1.1]pentanyl)-6,7-dimethyl-pteridin-2-yl]-2-(1-cyclopropylpyrazol-4-yl)-6-methyl-morpholine], the concentration giving a half-maximal response (EC50) is under 100 nM.

Consider `Cc1nc2nc(N3C[C@@H](C)O[C@@H](c4cnn(C5CC5)c4)C3)nc(C3CCCC3)c2cc1C#N` [Example 72, 4-cyclopentyl-2-[(2S,6R)-2-(1-cyclopropyl-pyrazol-4-yl)-6-methyl-morpholin-4-yl]-7-methyl-pyrido[2,3-d]pyrimidine-6-carbonitrile], for which the EC50 is under 100 nM.

Turning to `Cc1nc2nc(C3CCOC(C4CCn5nccc5C4)C3)nc(C34CC(C(F)(F)F)(C3)C4)c2nc1C` (stereo not drawn) [Example 110, 6,7-dimethyl-2-[2-(4,5,6,7-tetrahydropyrazolo[1,5-a]pyridin-5-yl)tetrahydropyran-4-yl]-4-[3-(trifluoromethyl)-1-bicyclo[1.1.1]pentanyl]pteridine], the concentration for a half-maximal effect (EC50) was under 100 nM.

On to `Cc1nc2nc([C@H]3CCO[C@@H](c4cn(C)c(=O)s4)C3)nc(C34CC(C(F)(F)F)(C3)C4)c2cc1C#N` (racemic) [Example 81, 7-methyl-2-[rac-(2R,4S)-2-(3-methyl-2-oxo-thiazol-5-yl)tetrahydropyran-4-yl]-4-[3-(trifluoromethyl)-1-bicyclo[1.1.1]pentanyl]pyrido[2,3-d]pyrimidine-6-carbonitrile], for which the concentration giving a half-maximal response (EC50) is under 100 nM.

Regarding `COC(=O)c1cc2c(-c3ccc(F)cc3F)nc([C@H]3CCO[C@@H](c4cnn(C5CC5)c4)C3)nc2nc1C` [Example 8, methyl 2-((2R,4S)-2-(1-cyclopropyl-1H-pyrazol-4-yl)tetrahydro-2H-pyran-4-yl)-4-(2,4-difluorophenyl)-7-methylpyrido[2,3-d]-pyrimidine-6-carboxylate], the EC50 was under 100 nM.

As to `Cc1nc2nc([C@H]3CCO[C@@H](c4cnn(C5CC5)c4)C3)nc(C34CC(C(F)(F)F)(C3)C4)c2cc1[S+](C)[O-]` (stereo partly drawn) [Example 32, 2-[(2R,4S)-2-(1-cyclopropylpyrazol-4-yl)tetrahydropyran-4-yl]-7-methyl-6-methylsulfinyl-4-[3-(trifluoromethyl)-1-bicyclo[1.1.1]pentanyl]pyrido[2,3-d]pyrimidine], the half-maximal effective concentration (EC50) was under 100 nM.

Turning to `CC(=O)c1cc2c(-c3ccc(F)cc3F)nc(N3C[C@@H](C)O[C@@H](c4cnn(C5CC5)c4)C3)nc2nc1C` [Example 4, 1-[2-[(2S,6R)-2-(1-cyclopropylpyrazol-4-yl)-6-methyl-morpholin-4-yl]-4-(2,4-difluorophenyl)-7-methyl-pyrido[2,3-d]pyrimidin-6-yl]ethanone], the 50% effective concentration (EC50) is under 100 nM.

Take `Cc1nc2nc(N3C[C@@H](C)O[C@@H](c4cnn(C5CC5)c4)C3)nc(C34CC(C(F)(F)F)(C3)C4)c2nc1C1CN(C(=O)OC(C)(C)C)C1` [Example 86, tert-butyl 3-[2-[(2S,6R)-2-(1-cyclopropylpyrazol-4-yl)-6-methyl-morpholin-4-yl]-7-methyl-4-[3-(trifluoromethyl)-1-bicyclo[1.1.1]pentanyl]pteridin-6-yl]azetidine-1-carboxylate]: the concentration giving a half-maximal response (EC50) is over 500 nM.

Regarding `Cc1cc([C@H]2CN(c3nc(C4CCCCC4)c4cc(C#N)c(C)nc4n3)CCO2)cnn1` [Example 46, 4-cyclohexyl-7-methyl-2-[2-(6-methyl-pyridazin-4-yl)morpholin-4-yl]-pyrido[2,3-d]pyrimidine-6-carbonitrile], the concentration for a half-maximal effect (EC50) is under 100 nM.

With `Cc1cc2c(C3CCCC3)nc(N3C[C@@H](C)O[C@@H](c4cnn(C5CC5)c4)C3)nc2nc1C` [Example 65, (2S,6R)-4-(4-cyclopentyl-6,7-dimethylpyrido[2,3-d]pyrimidin-2-yl)-2-(1-cyclopropylpyrazol-4-yl)-6-methylmorpholine], the EC50 is under 100 nM.

On to `Cc1nc2nc(N3C[C@@H](C)O[C@@H](c4cnn(C5CC5)c4)C3)nc(C34CC(C(F)(F)F)(C3)C4)c2cc1C#N` [Example 25, 2-[(2S,6R)-2-(1-cyclopropylpyrazol-4-yl)-6-methyl-morpholin-4-yl]-7-methyl-4-[3-(trifluoromethyl)-1-bicyclo[1.1.1]pentanyl]pyrido[2,3-d]pyrimidine-6-carbonitrile], for which the EC50 was under 100 nM.

Consider `Cc1nc2nc([C@H]3CCO[C@@H](c4cnn(C5CC5)c4)C3)nc(C34CC(C(F)(F)F)(C3)C4)c2cc1-c1cn(C)nn1` [Example 28, 2-((2R,4S)-2-(1-cyclopropyl-1H-pyrazol-4-yl)tetrahydro-2H-pyran-4-yl)-7-methyl-6-(1-methyl-1H-1,2,3-triazol-4-yl)-4-(3-(trifluoromethyl)-bicyclo[1.1.1]pentan-1-yl)pyrido[2,3-d]pyrimidine], for which the half-maximal effective concentration (EC50) was over 500 nM.

Consider `Cc1nc2nc(N3C[C@@H](C)O[C@@H](c4cnn(C5CC5)c4)C3)nc(C3CCCCC3)c2cc1C#N` [Example 35, 4-cyclohexyl-2-[(2S,6R)-2-(1-cyclopropylpyrazol-4-yl)-6-methyl-morpholin-4-yl]-7-methyl-pyrido[2,3-d]pyrimidine-6-carbonitrile], for which the EC50 is under 100 nM.

Take `Cc1nc2nc(N3C[C@@H](C)O[C@@H](c4ccnc(N(C)C)c4)C3)nc(C34CC(C(F)(F)F)(C3)C4)c2nc1C` (racemic) [Example 142, N,N-dimethyl-4-[rac-(2S,6R)-4-[6,7-dimethyl-4-[3-(trifluoromethyl)-1-bicyclo[1.1.1]pentanyl]pteridin-2-yl]-6-methyl-morpholin-2-yl]pyridin-2-amine]: the EC50 lay in the range of 100 to 500 nM.

On to `Cc1nc2nc(N3C[C@@H](C)O[C@@H](c4cnn(C5CC5)c4)C3)nc(C34CC(C(F)(F)F)(C3)C4)c2nc1C1CN(C)C1` [Example 87, (2S,6R)-2-(1-cyclopropylpyrazol-4-yl)-6-methyl-4-[7-methyl-6-(1-methylazetidin-3-yl)-4-[3-(trifluoromethyl)-1-bicyclo[1.1.1]pentanyl]pteridin-2-yl]morpholine], for which the concentration giving a half-maximal response (EC50) was 100 to 500 nM.

Take `Cc1nc2nc(C3CCOC(c4ccc5nccn5c4)C3)nc(-c3ccc(F)cc3F)c2nc1C` (stereo not drawn) [Example 94, 4-(2,4-difluorophenyl)-2-(2-imidazo[1,2-a]pyridin-6-yltetrahydropyran-4-yl)-6,7-dimethyl-pteridine]: the half-maximal effective concentration (EC50) is under 100 nM.

On to `Cc1nc2nc([C@H]3CCO[C@@H](c4cnn(C5CC5)c4)C3)nc(C34CC(C(F)(F)F)(C3)C4)c2cc1S(C)(=O)=O` [Example 31, 2-[(2R,4S)-2-(1-cyclopropylpyrazol-4-yl)tetrahydropyran-4-yl]-7-methyl-6-methylsulfonyl-4-[3-(trifluoromethyl)-1-bicyclo[1.1.1]pentanyl]pyrido[2,3-d]pyrimidine], for which the EC50 was under 100 nM.

Take `Cc1nc2nc(N3C[C@@H](C)O[C@@H](c4ccn5nccc5c4)C3)nc(C34CC(C(F)(F)F)(C3)C4)c2nc1C` [Example 111, (2R,6S)-4-[6,7-dimethyl-4-[3-(trifluoromethyl)-1-bicyclo[1.1.1]pentanyl]pteridin-2-yl]-2-methyl-6-pyrazolo[1,5-a]pyridin-5-yl-morpholine]: the EC50 is under 100 nM.

Take `CO/N=C(\C)c1cc2c(-c3ccc(F)cc3F)nc(N3C[C@@H](C)O[C@@H](c4cnn(C5CC5)c4)C3)nc2nc1C` [Example 5, 1-[2-[(2S,6R)-2-(1-cyclopropylpyrazol-4-yl)-6-methyl-morpholin-4-yl]-4-(2,4-difluorophenyl)-7-methyl-pyrido[2,3-d]pyrimidin-6-yl]-N-methoxy-ethanimine]: the 50% effective concentration (EC50) is under 100 nM.
